Measured values taken from BindingDB's records for doi:10.1016/j.ejmech.2017.01.044 (Universidade De Lisboa, 2017).

Test: Inhibition of human ABCB1 expressed in mouse L5178Y cells assessed as reduction in cell growth after 24 hrs by MTT assay

Compound	IC50 [µM]
CC[C@@H]1CN(C)[C@H]2Cc3c([nH]c4ccccc34)/C(=N/Nc3ccccc3)C[C@H]1[C@@H]2C(=O)OC	17
CC[C@H]1CN(C)[C@H]2Cc3c([nH]c4ccccc34)/C(=N/Nc3cnccn3)C[C@H]1[C@@H]2C(=O)OC	84.8
CC[C@H]1CN(C)[C@H]2Cc3c([nH]c4ccccc34)C(=O)C[C@H]1[C@@H]2C(=O)OC	> 100
CC[C@@H]1CN(C)[C@H]2Cc3c([nH]c4ccccc34)C(=O)C[C@H]1[C@@H]2C(=O)OC	> 100
CC[C@@H]1CN(C)[C@H]2Cc3c([nH]c4ccccc34)/C(=N/Nc3cnccn3)C[C@H]1[C@@H]2C(=O)OC	> 100
CC[C@@H]1CN(C)[C@H]2Cc3c([nH]c4ccccc34)/C(=N/NC(N)=O)C[C@H]1[C@@H]2C(=O)OC	> 100
CC[C@H]1CN(C)[C@H]2Cc3c([nH]c4ccccc34)/C(=N/NC(=O)OCc3ccc(OC)cc3)C[C@H]1[C@@H]2C(=O)OC	52.3
CC[C@H]1CN(C)[C@H]2Cc3c([nH]c4ccccc34)/C(=N/NC(=S)NCc3cccnc3)C[C@H]1[C@@H]2C(=O)OC	45.2
CC[C@H]1CN(C)[C@H]2Cc3c([nH]c4ccccc34)C(=S)C[C@H]1[C@@H]2C(=O)OC	77.9
CC[C@H]1CN(C)[C@H]2Cc3c([nH]c4ccccc34)[C@@H](O)C[C@H]1[C@@H]2C(=O)OC	> 100
CC[C@@H]1CN(C)[C@H]2Cc3c([nH]c4ccccc34)[C@@H](O)C[C@H]1[C@@H]2C(=O)OC	83.9
C/C=C/C(=O)O[C@H]1C[C@@H]2[C@@H](CC)CN(C)[C@@H](Cc3c1[nH]c1ccccc31)[C@H]2C(=O)OC	> 100
CC[C@@H]1CN(C)[C@H]2Cc3c([nH]c4ccccc34)[C@@H](OC(=O)C34CC5CC(CC(C5)C3)C4)C[C@H]1[C@@H]2C(=O)OC	> 100
CC[C@H]1CN(C)[C@H]2Cc3c(n(C)c4ccccc34)C(=O)C[C@H]1[C@@H]2C(=O)OC	89.2
CC[C@H]1CN(C)[C@H]2Cc3c(n(Cc4ccccc4)c4ccccc34)C(=O)C[C@H]1[C@@H]2C(=O)OC	38.1
CC[C@H]1CN(C)[C@H]2Cc3c(n(CCN(CC)CC)c4ccccc34)C(=O)C[C@H]1[C@@H]2C(=O)OC	> 100
CC[C@H]1CN(C)[C@H]2Cc3c(n(C(=O)c4cccc(C)c4)c4ccccc34)C(=O)C[C@H]1[C@@H]2C(=O)OC	> 100
CC[C@H]1CN(C)[C@H]2Cc3c([nH]c4ccccc34)/C(=N/Nc3ccc(Br)cn3)C[C@H]1[C@@H]2C(=O)OC	39.9
CC[C@@H]1CN(C)[C@H]2Cc3c([nH]c4ccccc34)/C(=N/Nc3ccc(Br)cn3)C[C@H]1[C@@H]2C(=O)OC	37.6
CC[C@H]1CN(C)[C@H]2Cc3c([nH]c4ccccc34)/C(=N/O)C[C@H]1[C@@H]2C(=O)OC	16.7
CC[C@@H]1CN(C)[C@H]2Cc3c([nH]c4ccccc34)/C(=N/O)C[C@H]1[C@@H]2C(=O)OC	85.4
CC[C@H]1CN(C)[C@H]2Cc3c([nH]c4ccccc34)/C(=N/NC(N)=O)C[C@H]1[C@@H]2C(=O)OC	> 100
CC[C@H]1CN(C)[C@H]2Cc3c([nH]c4ccccc34)/C(=N/Nc3ccccc3)C[C@H]1[C@@H]2C(=O)OC	52.7
